Experiments:
[1] = target: KRAS^wt (wild type) protein binding to RBD region fragment of RAF1 protein (Homo sapiens (Human), UniProt P01116); assay: KRAS-RAF1 binding assay (HTRF), KRAS wild type; details: GST-RAF1-RBD, GTP
Description: (§1) GST-RAF1-RBD was purchased from BPS Bioscience; Cat. NO.: 100519; KRAS^G12D was purchased from BPS Bioscience; Cat. NO.: 100623; KRAS^wt was purchased from Reactionbiology; GTP was purchased from Sigma; Cat. NO.: G8877; Mab Anti GST-XL665 was purchased from cisbio; Cat. NO.: 61GSTXLF; Eu-W1024-anti-6×HIS was purchased from PE; Cat. NO.: AD0111; ProxiPlate-384-Plates was purchased from PerkinElmer; Cat. NO.: 6008289; DMSO was purchased from VWR AMRESCO; Cat. NO.: 0231-500ML; microplate reader was purchased from PerkinElmer; Cat. NO.: Envison;
(§2) This experiment is intended to investigate the inhibitory effect of compounds on the binding of KRAS^G12D mutant protein or KRAS^Wt (wild type) protein to fragments of the RBD region fragment of RAF1 protein. A 500×3-fold gradient concentration stock of compound was prepared using DMSO and diluted 50-fold into a 10× stock of compound using reaction buffer. To the reaction wells of an ELISA plate (ProxiPlate-384-Plates), was first added 3 µL of His-KRAS^G12D protein or KRAS^wt protein, then added 1 μL of 200 µM GTP and incubated for 30 min, then added 2 μL of 10× compound or reaction buffer with 2% DMSO (positive control) and incubated for 30 min, then added 4 μL of GST-RAF1-RBD protein or reaction buffer (negative control) and incubated for 15 min, then added […] anti-His antibody and XL665-labeled anti-GST antibody mixed well in advance and incubated for 60 min before reading HTRF signal by microplate reader. The inhibition ratio of compounds on KRAS protein (G12D mutant or wild type) and RAF1 binding was calculated IR (%)=(positive control signal-compound well signal)/(positive control signal-negative control signal)×100% and IC50 values were calculated by fitting compound concentrations and corresponding inhibition ratios using the Prism 8 four-parameter method. […] While the inhibition IC50 values of the compounds on the binding of KRAS^wt (wild type) protein to the RBD region fragment of RAF1 protein was more than 40 nM or 100 nM, or more than 500 nM, or even more than 1 μM or 2 μM.

[2] = tested on: AGS cells (KRAS^G12D mutation); assay: Cell proliferation inhibition assay (3D, CellTiter-Glo), AGS; assay type: cell-based, human; details: Homo sapiens, AGS, 120 h, 3D cell model, 5 days
From the text: (§3) AsPC-1 was purchased from ATCC; Cat. NO.: CRL-1682; AGS was purchased from ATCC; Cat. NO.: CRL-1739; RPMI1640 was purchased from Gibco; Cat. NO.: 11875-093 2235123; F12K was purchased from Gibco; Cat. NO.: 21127-022; FBS was purchased from Gibco; Cat. NO.: 10099-141C; Trypsin (containing EDTA) was purchased from Gibco; Cat. NO.: 25200-072; CellTiter Glo-3D was purchased from Progema; Cat. NO.: G9683; 384-well sphere plates were purchased from coming; Cat. NO.: 3830; White background opaque 384-well plates were purchased from coming; Cat. NO.: 3570; Cell Counters were purchased from CHEMOMETEC; Model NO.: NC-200; microplate reader was purchased from PerkinElmer; Model NO.: Envison;
(§4) AsPC-1 is an endogenous human pancreatic cancer cell containing KRAS^G12D mutation, which is cultured in RPMI-1640 medium containing 10% FBS; AGS human gastric cancer cell line containing KRAS^G12D mutation, cultured in F-12K medium containing 10% FBS. Cells in the logarithmic growth phase were taken, digested with trypsin (containing EDTA), harvested and counted, and inoculated with 800 AsPC-1 cells/well or 400 AGS cells/well, respectively, in 384-well sphere plates and cultured overnight at 5% C02 to establish a 3D cell model. A 3.16-fold gradient concentration stock solution of 1000× compound was prepared using DMSO, diluted 100-fold into a 10× compound stock solution using media, and a 10× compound stock solution was added to each cell culture well the day after cell inoculating at a final concentration of 1× with a DMSO content of 0.1%. DMSO was used as an experimental control (control) and culture medium as a blank control (blank). After the addition of compounds, the cells were cultured for 5 days. […] CellTiter-Glo working solution was added to each well, mixed well, and incubated for 30 min. After standing for 30 min at room temperature, 40 μl of the mixed solution was transferred to a white background opaque 384-well plate. Luminescence chemiluminescence value was read on a microplate reader, and the cell proliferation inhibition ratio was calculated, IR (%)=(RLU control-RLU compound)/(RLU control-RLU blank)×100%. XLFit four-parameter method was used to fit the gradient dilution concentration of compounds and the corresponding cell proliferation inhibition ratio, and the IC50 value was calculated. […] Results for exemplary of the example compounds are shown in Table 3 below. - indicates not detected.

[3] = tested on: p-ERK in AGS cells (KRAS^G12D mutation); assay: Cell p-ERK detection assay; assay type: cell-based, human; details: Homo sapiens, AGS, 3 h, 3 h incubation, HTRF
Description: AGS was purchased from ATCC; Cat. NO.: CRL-1739; F12K was purchased from Gibco; Cat. NO.: 21127-022; FBS was purchased from Gibco; Cat. NO.: 10099-141C; Trypsin (containing EDTA) was purchased from Gibco; Cat. NO.: 25200-072; DMSO was purchased from VWRAMRESCO; Cat. NO.: 0231-500ML; 96-well cell culture plate was purchased from Corning; Cat. NO.: 3599; An white background opaque 96-well plate was purchased from Cisbio; Cat. NO.: 66PL96025; Advance ERK phospho-T202/Y204 kit was purchased from Cisbio; Cat. NO.: 64AERPEH; Cell Counters were purchased from CHEMOMETEC; Model NO.: NC-200; microplate reader was purchased from PerkinElmer; Model NO.: Envison.
AGS is an endogenous human gastric adenocarcinoma cell line containing KRAS^G12D mutation, cultured in F12K+10% FBS medium. On the first day of the experiment, cells in the logarithmic growth phase were taken, digested with trypsin (containing EDTA), collected, and counted, and approximately 20,000 cells/well were inoculated in 96-well cell culture plates and cultured overnight in a 5% CO2 incubator. A 1000×3.16-fold gradient concentration stock of the compound was prepared using DMSO, diluted 200-fold into a 5× compound stock using the medium described above, and a 5× compound stock was added to each cell culture well the day after cell inoculating at a final concentration of 1× and a DMSO content of 0.1%. DMSO was used as an experimental control. After the compound was added and the incubation was continued for 3 h, the medium in the culture wells was removed, […] of cell lysis solution (from Advance ERK phospho-T202/Y204 kit, the same below) was added to each well, mixed well and incubated for 30 min, then […] of the mixed solution was transferred to a white background opaque 96-well plate, and another well was taken as a blank well with adding […] of cell lysis solution. After the transfer, […] of p-ERK HTRF antibody mixed solution (from Advance ERK phospho-T202/Y204 kit) was added to each well, after incubation for 4 h, HTRF fluorescence value (RLU) was read by a microplate reader, and p-ERK level inhibition ratio of the compound was calculated IR (%)=(RLU control-RLU compound)/(RLU control-RLU blank)×100%, compound concentration and corresponding cell p-ERK level inhibition ratio were fitted using Prism 8 four-parameter method, and IC50 value was calculated.

[4] = tested on: AsPC-1 cells (KRAS^G12D mutation); assay: Cell proliferation inhibition assay (3D, CellTiter-Glo), AsPC-1; assay type: cell-based, human; details: Homo sapiens, ASPC1, 120 h, 3D cell model, 5 days
From the text: as §3, §4

[5] = target: KRAS^G12D mutant protein binding to RBD region fragment of RAF1 protein (Homo sapiens (Human), UniProt P01116, G12D); assay: KRAS-RAF1 binding assay (HTRF), KRAS G12D; details: His-KRAS^G12D, GST-RAF1-RBD, GTP
Description: as §1, §2

Chain of KRAS^G12D mutant protein binding to RBD region fragment of RAF1 protein (P01116-2 other isoform, or with tags, fused parts or gaps G12D): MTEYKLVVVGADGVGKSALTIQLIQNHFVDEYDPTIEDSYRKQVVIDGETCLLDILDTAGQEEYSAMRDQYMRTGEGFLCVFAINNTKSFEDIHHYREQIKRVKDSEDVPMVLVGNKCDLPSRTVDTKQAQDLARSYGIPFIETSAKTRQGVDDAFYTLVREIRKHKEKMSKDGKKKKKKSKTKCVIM
Chain of KRAS^wt (wild type) protein binding to RBD region fragment of RAF1 protein (P01116-2 other isoform, or with tags, fused parts or gaps): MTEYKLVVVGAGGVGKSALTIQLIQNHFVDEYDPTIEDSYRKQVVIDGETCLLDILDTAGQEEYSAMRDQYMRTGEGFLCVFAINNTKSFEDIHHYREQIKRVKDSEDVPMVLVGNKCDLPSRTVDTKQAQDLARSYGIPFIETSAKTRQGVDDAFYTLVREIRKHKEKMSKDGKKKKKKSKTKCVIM

| Structure (SMILES) | IC50 [1] | IC50 [2] | IC50 [3] | IC50 [4] | IC50 [5] |
| --- | --- | --- | --- | --- | --- |
| C#Cc1cccc2cc(O)cc(-c3ncc4c(N5C[C@H]6CC[C@@H](C5)N6)nc(OCC56CCCN5CC(=CF)C6)nc4c3F)c12 (stereo partly drawn) [Example Z5, 4-(4-((1R,5S)-3,8-diazabicyclo[3.2.1]octan-3-yl)-8-fluoro-2-((2-(fluoromethylene)tetrahydro-1H-pyrrolizin-7a(5H)-yl)methoxy)pyrido[4,3-d]pyrimidin-7-yl)-5-ethynylnaphthalen-2-ol] | 43.7 nM | 4.5 nM | 1.16 nM | 29.4 nM | 36.3 nM |
| C=C1CN2CCCC2(COc2nc(N3C[C@H]4CC[C@@H](C3)N4)c3cnc(-c4cc(O)cc5cccc(CC)c45)c(F)c3n2)C1 (stereo partly drawn) [Example Z11, 4-(4-((1R,5S)-3,8-diazabicyclo[3.2.1]octan-3-yl)-8-fluoro-2-((2-methylenetetrahydro-1H-pyrrolizin-7a(5H)-yl)methoxy)pyrido[4,3-d]pyrimidin-7-yl)-5-ethylnaphthalen-2-ol] | 263 nM | 2.5 nM | 4.91 nM | 50.6 nM | 45.9 nM |
| C#Cc1cccc2cc(O)cc(-c3ncc4c(N5C[C@H]6CC[C@@H](C5)N6)nc(OCC56CC(=C)CN5CC(F)C6)nc4c3F)c12 (stereo partly drawn) [Example Z17, 4-(4-((1R,5S)-3,8-diazabicyclo[3.2.1]octan-3-yl)-8-fluoro-2-((2-fluoro-6-methylenetetrahydro-1H-pyrrolizine 7a(5H)-yl)methoxy)pyrido[4,3-d]pyrimidin-7-yl)-5-ethynylnaphthalen-2-ol] | 64.3 nM | 6.8 nM | 1.16 nM | 35.7 nM | 50 nM |
| C#Cc1cccc2cc(O)cc(-c3ncc4c(N5C[C@H]6C=C[C@@H](C5)N6)nc(OCC56CCCN5CC(F)(F)C6)nc4c3F)c12 (stereo partly drawn) [Example Z15, 4-(4-((1R,5S)-3,8-diazabicyclo[3.2.1]oct-6-en-3-yl)-2-((2,2-difluorotetrahydro-1H-pyrrolizin-7a(5H)-yl)methoxy)-8-fluoropyrido[4,3-d]pyrimidin-7-yl)-5-ethynylnaphthalen-2-ol] | > 3000 nM | 194 nM | 60.7 nM | 947 nM | 33 nM |
| C#Cc1c(F)ccc2cc(O)cc(-c3ncc4c(N5C[C@H]6CC[C@@H](C5)N6)nc(OC[C@]56CCCN5CC(=C)C6)nc4c3F)c12 (single isomer, unassigned) [Example Z13] | 101 nM | 13 nM | 11 nM | 67.2 nM | 53.6 nM |
| C#Cc1cccc2cc(O)cc(-c3ncc4c(N5CC6CCC(C5)C6N)nc(OCC56CCCN5CCC6)nc4c3F)c12 (stereo not shown) [Example Z1] | 2610 nM | – | – | – | 256 nM |
| C#Cc1cccc2cccc(-c3ncc4c(N5C[C@H]6C=C[C@@H](C5)N6)nc(OCC56CCCN5CCC6)nc4c3F)c12 [Example Z6, 4-((1R,5S)-3,8-diazabicyclo[3.2.1]oct-6-en-3-yl)-7-(8-ethynylnaphthalen-1-yl)-8-fluoro-2-((tetrahydro-1H-pyrrolizin-7a(5H)-yl)methoxy)pyrido[4,3-d]pyrimidine] | > 10000 nM | 815 nM | 426 nM | – | 51.6 nM |
| C#Cc1cccc2cc(O)cc(-c3ncc4c(N5CC6CCC(C5)C6N)nc(OCC56CCCN5CCC6)nc4c3F)c12 (stereo not shown) [Example Z2] | 788 nM | – | – | – | 186 nM |
| C#Cc1cccc2cc(O)cc(-c3ncc4c(N5C[C@H]6C=C[C@@H](C5)N6)nc(OCC56CCCN5CCC6)nc4c3F)c12 [Example Z4, 4-(4-((1R,5S)-3,8-diazabicyclo[3.2.1]oct-6-en-3-yl)-8-fluoro-2-((tetrahydro-1H-pyrrolizin-7a(5H)-yl)methoxy)pyrido[4,3-d]pyrimidin-7-yl)-5-ethynylnaphthalen-2-ol] | 393 nM | 360 nM | 47.1 nM | – | 20.6 nM |
| C#Cc1cccc2cc(O)cc(-c3ncc4c(N5C[C@@H]6N[C@H](C5)[C@@H]5C[C@@H]56)nc(OCC56CCCN5CCC6)nc4c3F)c12 [Example Z10, 5-ethynyl-4-(8-fluoro-2-((tetrahydro-1H-pyrrolizin-7a(5H)-yl)methoxy)-4-((1R, 2S, 4R, 5S)-7,9-diazatricyclo[3.3.1.0^2,4]nonan-7-yl)pyrido[4,3-d]pyrimidin-7-yl)naphthalen-2-ol] | 119 nM | – | 215 nM | – | 62.9 nM |
| C#Cc1cccc2cc(O)cc(-c3ncc4c(N5C[C@H]6CC[C@@H](C5)N6)nc(OCC56CCCN5CC(=C(F)F)C6)nc4c3F)c12 (stereo partly drawn) [Example Z27, 4-(4-((1R,5S)-3,8-diazabicyclo[3.2.1]octan-3-yl)-2-((2-(difluoromethylene)tetrahydro-1H-pyrrolizine 7a(5H)-yl)methoxy)-8-fluoropyrido[4,3-d]pyrimidin-7-yl)-5-ethynylnaphthalen-2-ol] | – | 3.1 nM | 1.1 nM | 6.9 nM | – |
